Reference: patent US20100160335A1, “PYRIDAZINONE DERIVATIVE AND PDE INHIBITOR CONTAINING THE SAME AS ACTIVE INGREDIENT” (KYORIN PHARMACEUTICAL CO., LTD., priority 2007, published 2010)

Tests used:
[1] = target: T1, PDE4Bcat (Homo sapiens, UniProt Q07343); experiment: Phosphodiesterase inhibitory activity, PDE4 ([3H]cAMP, recombinant enzyme); assay type: biochemical; conditions: 30° C., 20 minutes, read-out: IC50(μmol/L) PDE4
T1 construct: made in house; host or cells: Sf9 insect cells (baculovirus, Bac-to-Bac / Gateway)
T1 sequence (Q07343 330-659 limits assumed): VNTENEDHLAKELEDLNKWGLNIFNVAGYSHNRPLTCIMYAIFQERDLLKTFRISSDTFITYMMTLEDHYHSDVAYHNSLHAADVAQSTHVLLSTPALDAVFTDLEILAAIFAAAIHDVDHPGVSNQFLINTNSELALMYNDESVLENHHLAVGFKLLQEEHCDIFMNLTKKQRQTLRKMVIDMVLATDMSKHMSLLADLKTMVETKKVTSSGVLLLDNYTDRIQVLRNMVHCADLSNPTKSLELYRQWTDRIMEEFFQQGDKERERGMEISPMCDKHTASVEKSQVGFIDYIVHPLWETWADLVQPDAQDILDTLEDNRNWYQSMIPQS

[2] = target: T2, PDE3A catalytic domain (PDE3Acat) (Homo sapiens, UniProt Q14432); experiment: Phosphodiesterase inhibitory activity, PDE3 ([3H]cAMP, recombinant enzyme); assay type: biochemical; conditions: 30° C., 20 minutes, read-out: IC50(μmol/L) PDE3
T2 construct: made in house; host or cells: Sf9 insect cells (baculovirus, Bac-to-Bac / Gateway)
T2 sequence (Q14432 674-1093 limits assumed): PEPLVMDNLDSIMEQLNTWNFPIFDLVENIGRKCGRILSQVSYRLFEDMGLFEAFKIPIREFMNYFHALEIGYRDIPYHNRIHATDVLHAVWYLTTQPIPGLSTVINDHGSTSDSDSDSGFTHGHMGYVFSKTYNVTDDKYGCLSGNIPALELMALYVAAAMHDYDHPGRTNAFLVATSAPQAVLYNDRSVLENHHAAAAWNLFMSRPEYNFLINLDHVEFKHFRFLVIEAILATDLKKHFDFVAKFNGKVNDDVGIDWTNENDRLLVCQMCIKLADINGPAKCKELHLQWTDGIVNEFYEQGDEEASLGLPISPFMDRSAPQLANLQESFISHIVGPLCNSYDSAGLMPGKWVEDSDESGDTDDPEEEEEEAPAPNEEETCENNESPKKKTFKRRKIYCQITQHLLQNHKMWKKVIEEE

IC50 [1] | IC50 [2] | SMILES
< 0.1 µmol/L | 1 to 10 µmol/L | CCc1ccc2c(C3=NN(CCCCOc4ccc(C5=NNC(=O)CC5C)cc4)C(=O)CC3C)ccc(OC)c2n1 (single isomer, unassigned) [Example 341, 6-(2-Ethyl-8-methoxyquinolin-5-yl)-5-methyl-2-[4-[4-(4-methyl-6-oxo-1,4,5,6-tetrahydropyridazin-3-yl)phenoxy]butyl]-4,5-dihydro-2H-pyridazin-3-one]
0.1 to 1 µmol/L | < 0.1 µmol/L | CCc1ccc2c(-c3ccc(=O)n(CCCCOc4ccc(C5=NNC(=O)CC5C)cc4F)n3)ccc(OC)c2n1 (single isomer, unassigned; (+)) [Example 328, (+)-6-(2-Ethyl-8-methoxyquinolin-5-yl)-2-[4-[2-fluoro-4-(4-methyl-6-oxo-1,4,5,6-tetrahydropyridazin-3-yl)phenoxy]butyl]-2H-pyridazin-3-one]
< 0.1 µmol/L | < 0.1 µmol/L | CCc1ccc2c(-c3ccc(=O)n(CCCCOc4ccc(C5=NNC(=O)CC5C)cc4F)n3)ccc(OC)c2n1 (single isomer, unassigned; (-)) [Example 329, (−)-6-(2-Ethyl-8-methoxyquinolin-5-yl)-2-[4-[2-fluoro-4-(4-methyl-6-oxo-1,4,5,6-tetrahydropyridazin-3-yl)phenoxy]butyl]-2H-pyridazin-3-one]
0.1 to 1 µmol/L | 0.1 to 1 µmol/L | COc1ccc(-c2ccc(=O)n(CCCCOc3ccc(C4=NNC(=O)CC4C)cc3)n2)c2ccc(C)nc12 (stereo not shown) [Example 268, 6-(8-Methoxy-2-methylquinolin-5-yl)-2-[4-[4-(4-methyl-6-oxo-1,4,5,6-tetrahydropyridazin-3-yl)phenoxy]butyl]-2H-pyridazin-3-one]
0.1 to 1 µmol/L | < 0.1 µmol/L | COc1ccc(-c2ccc(=O)n(CCCCOc3ccc(C4=NNC(=O)CC4C)cc3)n2)c2ccc(C(C)C)nc12 (stereo not shown) [Example 270, 6-(8-Methoxy-2-isopropylquinolin-5-yl)-2-[4-[4-(4-methyl-6-oxo-1,4,5,6-tetrahydropyridazin-3-yl)phenoxy]butyl]-2H-pyridazin-3-one]
< 0.1 µmol/L | < 0.1 µmol/L | COc1ccc(-c2ccc(=O)n(CCCCOc3ccc(C4=NNC(=O)CC4)c(F)c3F)n2)c2cc(C(F)(F)F)oc12 [Example 274, 2-[4-[2,3-Difluoro-4-(6-oxo-1,4,5,6-tetrahydropyridazin-3-yl)phenoxy]butyl]-6-(7-methoxy-2-trifluoromethylbenzofuran-4-yl)-2H-pyridazin-3-one]
0.1 to 1 µmol/L | < 0.1 µmol/L | COc1ccc(-c2ccc(=O)n(CCCCOc3ccc(C4=NNC(=O)C4(C)C)c(F)c3F)n2)c2cc(C(F)(F)F)oc12 [Example 275, 2-[4-[2,3-Difluoro-4-(4,4-dimethyl-5-oxo-4,5-dihydro-1H-pyrazol-3-yl)phenoxy]butyl]-6-(7-methoxy-2-trifluoromethylbenzofuran-4-yl)-2H-pyridazin-3-one]
0.1 to 1 µmol/L | < 0.1 µmol/L | COc1ccc(-c2ccc(=O)n(CCCCOc3ccc(C4=NNC(=O)CC4C)c(F)c3F)n2)c2cc(C(F)(F)F)oc12 (stereo not shown) [Example 276, 2-[4-[2,3-Difluoro-4-(4-methyl-6-oxo-1,4,5,6-tetrahydropyridazin-3-yl)phenoxy]butyl]-6-(7-methoxy-2-trifluoromethylbenzofuran-4-yl)-2H-pyridazin-3-one]
0.1 to 1 µmol/L | < 0.1 µmol/L | CCc1ccc2c(-c3ccc(=O)n(CCCCOc4ccc(C5=NNC(=O)CC5C)cc4)n3)ccc(OC)c2n1 (stereo not shown) [Example 280, 6-(2-ethyl-8-Methoxyquinolin-5-yl)-2-[4-[4-(4-methyl-6-oxo-1,4,5,6-tetrahydropyridazin-3-yl)phenoxy]butyl]-2H-pyridazin-3-one]
0.1 to 1 µmol/L | 0.1 to 1 µmol/L | CCc1ccc2c(-c3ccc(=O)n(CCCCOc4ccc(C5=NNC(=O)CC5)cc4)n3)ccc(OC)c2n1 [Example 281, 6-(2-Ethyl-8-methoxyquinolin-5-yl)-2-[4-[4-(6-oxo-1,4,5,6-tetrahydropyridazin-3-yl)phenoxy]butyl]-2H-pyridazin-3-one]
0.1 to 1 µmol/L | ≥ 10 µmol/L | CCc1ccc2c(-c3ccc(=O)n(CCCCOc4ccc(C5=NNC(=O)C5(C)C)cc4)n3)ccc(OC)c2n1 [Example 282, 6-(2-Ethyl-8-methoxyquinolin-5-yl)-2-[4-[4-(4,4-dimethyl-5-oxo-4,5-dihydro-1H-pyrazol-3-yl)phenoxy]butyl]-2H-pyridazin-3-one]
0.1 to 1 µmol/L | < 0.1 µmol/L | CCc1ccc2c(-c3ccc(=O)n(CCCCOc4ccc(C5=NNC(=O)CC5)cc4F)n3)ccc(OC)c2n1 [Example 284, 6-(2-Ethyl-8-methoxyquinolin-5-yl)-2-[4-[2-fluoro-4-(6-oxo-1,4,5,6-tetrahydropyridazin-3-yl)phenoxy]butyl]-2H-pyridazin-3-one]
1 to 10 µmol/L | 1 to 10 µmol/L | CCc1ccc2c(-c3ccc(=O)n(CCCCOc4ccc(C5=NNC(=O)C5(C)C)cc4F)n3)ccc(OC)c2n1 [Example 285, 6-(2-Ethyl-8-methoxyquinolin-5-yl)-2-[4-[2-fluoro-4-(4,4-dimethyl-5-oxo-4,5-dihydro-1H-pyrazol-3-yl)phenoxy]butyl]-2H-pyridazin-3-one]
1 to 10 µmol/L | ≥ 10 µmol/L | CCc1ccc2c(-c3ccc(=O)n(CCCCOc4ccc(C5=NNC(=O)C5(C)C)cc4OC)n3)ccc(OC)c2n1 [Example 286, 6-(2-Ethyl-8-methoxyquinolin-5-yl)-2-[4-[2-methoxy-4-(4,4-dimethyl-5-oxo-4,5-dihydro-1H-pyrazol-3-yl)phenoxy]butyl]-2H-pyridazin-3-one]
< 0.1 µmol/L | 1 to 10 µmol/L | CCc1ccc2c(C3=NN(CCCCOc4ccc(C5=NNC(=O)C5(C)C)cc4F)C(=O)CC3C)ccc(OC)c2n1 (stereo not shown) [Example 302, 6-(2-Ethyl-8-methoxyquinolin-5-yl)-5-methyl-2-[4-[2-fluoro-4-(4,4-dimethyl-5-oxo-4,5-dihydro-1H-pyrazol-3-yl)phenoxy]butyl]-4,5-dihydro-2H-pyridazin-3-one]
1 to 10 µmol/L | 1 to 10 µmol/L | COc1ccc(-c2ccc(=O)n(CCCCOc3ccc(C4=NNC(=O)C4(C)C)c(F)c3F)n2)c2nc(C(F)(F)F)nn12 [Example 306, 2-[4-[2,3-Difluoro-4-(4,4-dimethyl-5-oxo-4,5-dihydro-1H-pyrazol-3-yl)phenoxy]butyl]-6-(5-methoxy-2-trifluoromethyl-[1,2,4]triazolo[1,5-a]pyridin-8-yl)-2H-pyridazin-3-one]
< 0.1 µmol/L | < 0.1 µmol/L | COc1ccc(-c2ccc(=O)n(CCCCOc3ccc(C4=NNC(=O)CC4C)c(F)c3F)n2)c2sc(C(F)(F)F)nc12 (stereo not shown) [Example 307, 2-[4-[2,3-Difluoro-4-(4-methyl-6-oxo-1,4,5,6-tetrahydropyridazin-3-yl)phenoxy]butyl]-6-(4-methoxy-2-trifluoromethylbenzothiazol-7-yl)-2H-pyridazin-3-one]
< 0.1 µmol/L | < 0.1 µmol/L | COc1ccc(-c2ccc(=O)n(CCCCOc3ccc(C4=NNC(=O)CC4)c(F)c3F)n2)c2sc(C(F)(F)F)nc12 [Example 308, 2-[4-[2,3-Difluoro-4-(6-oxo-1,4,5,6-tetrahydropyridazin-3-yl)phenoxy]butyl]-6-(4-methoxy-2-trifluoromethylbenzothiazol-7-yl)-2H-pyridazin-3-one]
< 0.1 µmol/L | < 0.1 µmol/L | COc1ccc(-c2ccc(=O)n(CCCCOc3ccc(C4=NNC(=O)C4(C)C)c(F)c3F)n2)c2sc(C(F)(F)F)nc12 [Example 309, 2-[4-[2,3-Difluoro-4-(4,4-dimethyl-5-oxo-4,5-dihydro-1H-pyrazol-3-yl)phenoxy]butyl]-6-(4-methoxy-2-trifluoromethylbenzothiazol-7-yl)-2H-pyridazin-3-one]
< 0.1 µmol/L | 0.1 to 1 µmol/L | COc1ccc(C2=NN(CCCCOc3ccc(C4=NNC(=O)CC4C)cc3)C(=O)CC2C)c2cc(C(F)(F)F)oc12 (stereo not shown) [Example 310]
1 to 10 µmol/L | < 0.1 µmol/L | COc1ccc(C2=NN(CCCCOc3ccc(C4=NNC(=O)CC4C)cc3)C(=O)CC2C)c2cc(C(F)(F)F)sc12 (stereo not shown) [Example 311]
< 0.1 µmol/L | 0.1 to 1 µmol/L | COc1ccc(C2=NN(CCCCOc3ccc(C4=NNC(=O)CC4C)cc3)C(=O)CC2C)c2sc(C(F)(F)F)nc12 (stereo not shown) [Example 313, 6-(4-Methoxy-2-trifluoromethylbenzothiazol-7-yl)-5-methyl-2-[4-[4-(4-methyl-6-oxo-1,4,5,6-tetrahydropyridazin-3-yl)phenoxy]butyl]-4,5-dihydro-2H-pyridazin-3-one]
0.1 to 1 µmol/L | 0.1 to 1 µmol/L | COc1ccc(-c2ccc(=O)n(CCCCOc3ccc(C4=NNC(=O)CC4C)cc3)n2)c2ccc(C(F)(F)F)nc12 (stereo not shown) [Example 321, 6-(8-Methoxy-2-trifluoromethylquinolin-5-yl)-2-[4-[4-(4-methyl-6-oxo-1,4,5,6-tetrahydropyridazin-3-yl)phenoxy]butyl]-2H-pyridazin-3-one]
0.1 to 1 µmol/L | < 0.1 µmol/L | CCc1ccc2c(-c3ccc(=O)n(CCOc4ccc(C5=NNC(=O)CC5C)c(F)c4F)n3)ccc(OC)c2n1 (stereo not shown) [Example 324, 6-(2-Ethyl-8-methoxyquinolin-5-yl)-2-[2-[2,3-difluoro-4-(4-methyl-6-oxo-1,4,5,6-tetrahydropyridazin-3-yl)phenoxy]ethyl]-2H-pyridazin-3-one]
0.1 to 1 µmol/L | 0.1 to 1 µmol/L | CCc1ccc2c(-c3ccc(=O)n(CCCOc4ccc(C5=NNC(=O)CC5C)c(F)c4F)n3)ccc(OC)c2n1 (stereo not shown) [Example 325, 6-(2-Ethyl-8-methoxyquinolin-5-yl)-2-[3-[2,3-difluoro-4-(4-methyl-6-oxo-1,4,5,6-tetrahydropyridazin-3-yl)phenoxy]propyl]-2H-pyridazin-3-one]
1 to 10 µmol/L | 1 to 10 µmol/L | CCc1ccc2c(-c3ccc(=O)n(CCCOc4ccc(C5=NNC(=O)CC5)c(F)c4F)n3)ccc(OC)c2n1 [Example 326, 6-(2-Ethyl-8-methoxyquinolin-5-yl)-2-[3-[2,3-difluoro-4-(6-oxo-1,4,5,6-tetrahydropyridazin-3-yl)phenoxy]propyl]-2H-pyridazin-3-one]
